The test system of test [1] is Ba/F3 cells stably expressing HER2 mutations (exons 19, 20, 21). In words: Ba/F3 HER2 mutant cell viability (Cell Titer Glo) TKI screen. Format: cell-based. As to the method: Briefly, stable Ba/F3 cell lines were generated by retroviral transduction of Ba/F3 cell line for 12 hours. […] Three days after transduction, 2 μg/ml puromycin (Invitrogen) was added to the RPMI media. After 5 days of selection, cells were stained with FITC-HER2 (Biolegend) sorted by FACS. Cell lines were then grown in the absence of IL-3 for two weeks and cell viability was assessed every three days using the Cell Titer Glo assay (Progema).
(§1) Briefly, 2000-3000 cells per well were plated in 384-well plates (Greiner Bio-One) in technical triplicate. Cells were treated with seven different concentrations of tyrosine kinase inhibitors or vehicle alone at a final volume of 40 μL per well. After 3 days, 11μL of Cell Titer Glo was added to each well. Plates were shaken for 15 minutes, and bioluminescence was determined using a FLUOstar OPTIMA multi-mode micro-plate reader (BMG LABTECH). Bioluminescence values were normalized to DMSO treated cells, and normalized values were plotted in GraphPad Prism using non-linear regression fit to normalized data with a variable slope.
For orientation: In ATP-based viability assays light output follows the ATP content of the culture.

Test [2] deals with MCF10A cells expressing HER2 G776del insVC. In words: MCF10A cell viability, HER2 G776del insVC. The note with it: Homo sapiens, MCF-10A, 72 hours. Format: cell-based. Here is the method: as §1, with “Cell Viability Assay and IC50 Estimation: Cell viability was determined using the Cell Titer Glo assay (Promega) as previously described (Robichaux et al., 2018). Briefly,” for “Briefly,”, “slope. IC50 values were calculated by GraphPad Prism at 50% inhibition.” for “slope.”
(§2) Human Cell lines: MCF10A cells were purchased from ATCC and were cultured in DMEM/F12 media supplemented with 1% penicillin/streptomycin, 5% horse serum (sigma), 20 ng/ml EGF, […] hydrocortisone, and 10 μg/ml insulin. Stable cell lines were created by retroviral transduction, and retroviruses were generated by transfecting pBabe-Puro based vectors summarized in Table 1 (Addgene and Bioinnovatise) into Phoenix 293T-ampho cells (Orbigen) using Lipofectamine 2000 (Invitrogen). […]

The test system of test [3] is MCF10A cells expressing HER2 Y772dupYVMA. In words: MCF10A cell viability, HER2 Y772dupYVMA. Format: cell-based. The note with it: Homo sapiens, MCF-10A, 72 hours. Here is the method: as §1, with “Cell Viability Assay and IC50 Estimation: Cell viability was determined using the Cell Titer Glo assay (Promega) as previously described (Robichaux et al., 2018). Briefly,” for “Briefly,”, “slope. IC50 values were calculated by GraphPad Prism at 50% inhibition.” for “slope.”
as §2

In test [4] the test system is MCF10A cells expressing HER2 G778dupGSP. In words: MCF10A cell viability, HER2 G778dupGSP. Format: cell-based. The note with it: Homo sapiens, MCF-10A, 72 hours. Here is the method: as §1, with “Cell Viability Assay and IC50 Estimation: Cell viability was determined using the Cell Titer Glo assay (Promega) as previously described (Robichaux et al., 2018). Briefly,” for “Briefly,”, “slope. IC50 values were calculated by GraphPad Prism at 50% inhibition.” for “slope.”
as §2

The test system of test [5] is MCF10A HER2 mutant cell lines. In words: MCF10A cell viability, HER2 exon 20 mutant cell lines together (average, selectivity vs HER2 WT, T-DM1 combination). It counts as cell-based, human. Here is the method:
as §1
Human Cell lines: MCF10A cells were purchased from ATCC and were cultured in DMEM/F12 media supplemented with 1% penicillin/streptomycin, 5% horse serum (sigma), 20 ng/ml EGF, […] hydrocortisone, and 10 μg/ml insulin. […] Two days after transduction, 0.5 μg/ml puromycin (Invitrogen) was added to the RPMI media. […] CW-2 cells were provided by the Riken cell line database under MTA, and were maintained in RPMI containing 10% FBS and 1% penicillin/streptomycin.

In test [6] the test system is CW-2 colorectal cell xenograft (HER2 L755S). In words: CW-2 xenograft mouse model. Format: in vivo, nu/nu nude mice. The note with it: day 21, 5 mg/kg, 5 days/week. As to the method: In vivo xenograft studies: CW-2 cell line xenografts were created by injecting 1×10^6 cells in 50% matrigel into 6 week old female nu/nu nude mice. When tumors reached 350 mm^3 mice were randomized into 4 groups: 20 mg/kg afatinib, 5 mg/kg poziotinib, 30 mg/kg neratinib, or vehicle control (0.5% Methylcellulose, 2% Tween-80 in dH2O). Tumor volumes were measured three times per week. Mice received drug Monday-Friday (5 days per week), but began dosing on Wednesday allowing for a 2 day holiday after the first 3 days of dosing.

In test [7] the test system is HER2 Y772dupYVMA NSCLC PDX. In words: HER2 Y772dupYVMA NSCLC PDX model. It counts as in vivo, NSG mice. Here is the method:
Y772dupYVMA PDX mice were purchased from Jax Labs (Model #TM01446). Fragments from tumors expressing HER2 Y772dupYVMA were inoculated into 5- to 6-week old female NSG mice (Jax Labs #005557). Mice were measured three times per week, and when tumors reached a volume of 200-300 mm^3 mice were randomized into four treatment groups: vehicle control (0.5% Methylcellulose, 0.05% Tween-80 in dH2O), 2.5 mg/kg poziotinib, 10 mg/kg T-DM1, or combination of 2.5 mg/kg poziotinib and 10 mg/kg T-DM1. Tumor volumes and body weight were measured three times per week. Mice treated with 2.5 mg/kg poziotinib received drug orally Monday-Friday (5 days per week). Mice treated with 10 mg/kg T-DM1 received one intravenous (IV) dose of T-DM1 on the day of randomization. Mice treated with combination poziotinib and T-DM1 received one IV dose of T-DM1 and began 2.5 mg/kg poziotinib five days per week, 3 days after the dose of T-DM1. Mice received a holiday from dosing if the mouse dropped in body weight by greater than 10% or if body weight dropped below 20 grams. Progression free survival was defined as tumor doubling from best response for two consecutive measurements. Complete regression was defined as greater than 95% reduction in tumor burden, and for mice with complete regression, tumor doubling was defined greater than 75 mm^3 for more than two consecutive measurements. Experiments were completed in agreement with Good Animal Practices and with approval from MD Anderson Cancer Center Institutional Animal Care and Use Committee (Houston, TX).

The mark [8] stands for this setting: MCF10A HER2 exon 20 mutants, ratio of average IC50.

The IC50 is the point on the concentration scale where inhibition reaches its midpoint. `C=CC(=O)N1CCC(Oc2cc3c(Nc4ccc(Cl)c(Cl)c4F)ncnc3cc2OC)CC1` [poziotinib, 1-[4-[4-(3,4-dichloro-2-fluoroanilino)-7-methoxyquinazolin-6-yl]oxypiperidin-1-yl]prop-2-en-1-one]: the “average IC50 compared with afatinib, neratinib, or tarloxotinib-TKI” value in test [1] (HER2 exon 19 and 20 mutations) was “significantly more efficacious”; in test [1] (HER2 exon 21 mutants) it was “no significant difference”. Moreover, the “concentration inhibiting HER2 exon 21 mutants” value in test [1] (HER2 exon 21 mutants) is “low nanomolar concentrations”. Further, the “average IC50 across all HER2 mutation variants and TKIs tested” value in test [1] (all Ba/F3 HER2 mutant cell lines, 72 hours) is reported as “lowest average IC50”. In test [1] (exons 19, 20, 21, 72 hours), the “inhibitory activity for HER2 mutants across all three exons” value is listed as “had inhibitory activity”. Also, the 50% inhibitory concentration (IC50) in test [2] is 12 nM; in test [3], 8.3 nM; in test [4], 4.5 nM. For the same molecule, the “times more potent than neratinib” value in test [5] (setting [8]) is reported as 19 times. In addition, the “times more potent than tarloxotinib-TKI” value in test [5] (setting [8]) is listed as 2.6 times. The “selectivity index (SI, IC50 value mutant/IC50 value WT)” value in test [5] (MCF10A HER2 mutant vs HER2 WT cell lines) was found to be 0.028. The “reduction in tumor volume compared to the vehicle treated group” value in test [6] is given as 58%. For the same molecule, the “mice with complete tumor regression” value in test [7] (day 15 (best response), poziotinib 2.5 mg/kg, T-DM1 10 mg/kg single dose) is listed as 0/12. The “median PFS (mPFS), time to tumor doubling from best response” value in test [7] (poziotinib 2.5 mg/kg 5 days per week, T-DM1 10 mg/kg single IV dose) was determined as 15 days.

Source of the values: US12629375B2, “Compounds with anti-tumor activity against cancer cells bearing HER2 exon 21 insertions” (Board of Regents, The University of Texas System, priority 2019, dated 2026).
